Data published in patent publication US11116771B2, “G protein-coupled receptor (GPCR) modulation by imipridones” (Oncoceutics, Inc., priority 2016, dated 2021).
Values after ≈ are worked out from the molar mass of the structure shown. “Also recorded” adds a separate entry of the source. Like-named read-outs stand apart in the source and are kept apart here.

How the values were obtained:
[1] = tested on: NCI60 cancer cell line panel; experiment: NCI60 cancer cell line panel; format: cell-based; conditions: NCI60 panel (FIG. 16)
[2] = tested on: human cancer cells; experiment: Viability of human cancer cells at 72 hours post-treatment; format: cell-based; conditions: for Relative Potency*: relative to the potency of ONC201, viability of human cancer cells at 72 hours post-treatment
[3] = tested on: Staphylococcus aureus ATCC 700699; experiment: MIC by micro-broth dilution, S. aureus ATCC 700699; format: cell-based
[4] = tested on: Staphylococcus aureus ATCC 29213; experiment: MIC by micro-broth dilution, S. aureus ATCC 29213; format: cell-based
[5] = tested on: Staphylococcus aureus ATCC 33591; experiment: MIC by micro-broth dilution, S. aureus ATCC 33591; format: cell-based
[6] = molecular target: T1, GPR132 (Homo sapiens, UniProt Q9UNW8); experiment: β-arrestin recruitment GPCR reporter assay, GPR132; format: cell-based
T1 sequence (Q9UNW8 1-380): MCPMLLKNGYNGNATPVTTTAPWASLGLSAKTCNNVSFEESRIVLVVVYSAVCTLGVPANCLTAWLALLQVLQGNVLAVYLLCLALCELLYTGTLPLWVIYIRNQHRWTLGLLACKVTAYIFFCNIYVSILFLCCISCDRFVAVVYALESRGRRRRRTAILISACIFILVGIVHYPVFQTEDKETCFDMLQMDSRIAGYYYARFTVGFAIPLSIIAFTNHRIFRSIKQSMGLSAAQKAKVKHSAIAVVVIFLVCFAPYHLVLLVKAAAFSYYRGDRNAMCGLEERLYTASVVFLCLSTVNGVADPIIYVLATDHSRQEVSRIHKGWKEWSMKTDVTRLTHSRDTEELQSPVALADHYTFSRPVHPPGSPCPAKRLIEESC

[7] = tested on: HCT116 cells; experiment: Anticancer efficacy in HCT116 cells; format: cell-based, human; conditions: HCT116 cells
[8] = molecular target: DRD5 (Homo sapiens, UniProt P21918); experiment: β-arrestin recruitment GPCR reporter assay, DRD5; format: cell-based; conditions: arrestin recruitment reporter assay
DRD5, sequence (P21918 whole entry): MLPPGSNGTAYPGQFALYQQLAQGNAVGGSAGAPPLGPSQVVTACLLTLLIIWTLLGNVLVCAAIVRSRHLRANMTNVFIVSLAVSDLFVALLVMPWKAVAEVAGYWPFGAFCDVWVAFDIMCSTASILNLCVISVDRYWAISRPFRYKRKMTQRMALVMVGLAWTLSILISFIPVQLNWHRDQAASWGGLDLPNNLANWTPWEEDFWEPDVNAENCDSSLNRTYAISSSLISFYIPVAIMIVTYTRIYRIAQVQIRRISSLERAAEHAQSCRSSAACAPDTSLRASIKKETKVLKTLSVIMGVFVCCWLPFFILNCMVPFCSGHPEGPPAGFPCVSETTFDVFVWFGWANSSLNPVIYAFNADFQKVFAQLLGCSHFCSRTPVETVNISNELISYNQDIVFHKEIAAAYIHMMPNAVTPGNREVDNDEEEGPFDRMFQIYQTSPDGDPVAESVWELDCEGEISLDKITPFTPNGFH

[9] = Staphylococcus aureus, ATCC700699, 48 h
[10] = Staphylococcus aureus, ATCC29213, 24 h
[11] = Staphylococcus aureus, ATCC33591, 24 h

With `O=C1C2=C(CCN(Cc3ccccc3)C2)N2CCN=C2N1Cc1cccs1` [ONC203] as the compound, how does the “anti-cancer efficacy across tumor types” value [1] read?
The value was “inactive negative control”.

What about the “Relative Potency*” value [2] of the same compound?
Its value is “C (C Indicates a potency decrease of >2-fold of ONC201)”.

What does the source list for `Cc1ccccc1CN1C(=O)C2=C(CCNC2)N2CCN=C12` [ONC207]?
MIC90 ([3]; ATCC 700699 (48 hours)): >100 µg/mL; MIC95 ([3]; ATCC 700699 (48 hours)): >100 µg/mL; MIC99 ([3]; ATCC 700699 (48 hours)): >100 µg/mL; MIC, Visual ([3]; ATCC 700699 (48 hours)): >100 µg/mL; MIC95 ([4]; ATCC 29213, 24 hours): >100 µg/mL; MIC99 ([4]; ATCC 29213, 24 hours): >100 µg/mL; MIC, Visual ([4]; ATCC 29213, 24 hours): >100 µg/mL; Relative Potency* [2]: B (B Indicates potency that is within 2-fold of ONC201); MIC90 ([5]; ATCC 33591, 24 hours): >100 µg/mL; MIC95 ([5]; ATCC 33591, 24 hours): >100 µg/mL; MIC99 ([5]; ATCC 33591, 24 hours): >100 µg/mL; MIC, Visual ([5]; ATCC 33591, 24 hours): >100 µg/mL

With `Cc1csc(CN2CCC3=C(C2)C(=O)N(Cc2ccc(C(F)(F)F)cc2)C2=NCCN23)n1` [ONC232] as the compound, how does the “Relative Potency*” value [2] read?
The value was “B (B Indicates potency that is within 2-fold of ONC201)”.

For `O=C1C2=C(CCN(Cc3cnccn3)C2)N2CCN=C2N1Cc1ccc(C(F)(F)F)cc1` [ONC233], which “Relative Potency*” value [2] is on record?
The value was “B (B Indicates potency that is within 2-fold of ONC201)”.

What does the source list for `O=C1C2=C(CCN(Cc3ccsc3)C2)N2CCN=C2N1Cc1ccc(C(F)(F)F)cc1` [ONC236]?
Relative Potency* [2]: A (A Indicates a potency increase of >2-fold of ONC201); GPCR activity, GPR132 [6]: highly selective GPR132 agonist; completeness of response [7]: better than ONC201 but not ONC212; also recorded: same as ONC212, and better than ONC201

`O=C1C2=C(CCN(CC(O)c3ccccc3)C2)N2CCN=C2N1Cc1ccc(C(F)(F)F)cc1` (centres unmarked) [ONC237] was tested. Which “GPCR activity, DRD5” value [8] did it give?
Its value is “DRD5 antagonist”.

And the IC50 ([2]; Homo sapiens, cell line not stated, read-out: anticancer efficacy IC50)?
Its IC50 is 31.2 µM.

What about the “Relative Potency*” value [2] of the same compound?
The value was “C (C Indicates a potency decrease of >2-fold of ONC201)”.

And the “GPCR activity, GPR132” value [6]?
The value was “GPR132 agonist”.

Which MIC90 [3, 9] does the source give for `CN[C@H](CC(C)C)C(=O)N[C@H]1C(=O)N[C@@H](CC(N)=O)C(=O)N[C@H]2C(=O)N[C@H]3C(=O)N[C@H](C(=O)N[C@H](C(=O)O)c4cc(O)cc(O)c4-c4cc3ccc4O)[C@H](O)c3ccc(c(Cl)c3)Oc3cc2cc(c3O[C@@H]2O[C@H](CO)[C@@H](O)[C@H](O)[C@H]2O[C@H]2C[C@](C)(N)[C@H](O)[C@H](C)O2)Oc2ccc(cc2Cl)[C@H]1O` [Vancomycin, reference compound] here?
Its MIC90 is 12.5 µg/mL (≈ 8.63 µM).

What about the MIC99 [3, 9] of the same compound?
Its MIC99 is 25 µg/mL (≈ 17.3 µM).

What about the MIC ([3]; Staphylococcus aureus, ATCC700699, 48 h, read-out: MIC95) of the same compound?
The MIC was 25 µg/mL (≈ 17.3 µM).

And the MIC ([3]; Staphylococcus aureus, ATCC700699, 48 h, read-out: MIC, Visual)?
The MIC was 25 µg/mL (≈ 17.3 µM).

What about the MIC90 [4, 10] of the same compound?
Its MIC90 is 3.13 µg/mL (≈ 2.16 µM).

And the MIC99 [4, 10]?
The MIC99 was 6.25 µg/mL (≈ 4.31 µM).

And the MIC ([4]; Staphylococcus aureus, ATCC29213, 24 h, read-out: MIC95)?
Its MIC is 3.13 µg/mL (≈ 2.16 µM).

What about the MIC ([4]; Staphylococcus aureus, ATCC29213, 24 h, read-out: MIC, Visual) of the same compound?
Its MIC is 3.12 µg/mL (≈ 2.16 µM).

What about the MIC90 [5, 11] of the same compound?
The MIC90 was 0.39 µg/mL (≈ 0.269 µM).

What about the MIC99 [5, 11] of the same compound?
The MIC99 was 0.78 µg/mL (≈ 0.538 µM).

What about the MIC ([5]; Staphylococcus aureus, ATCC33591, 24 h, read-out: MIC95) of the same compound?
The MIC was 0.39 µg/mL (≈ 0.269 µM).

And the MIC ([5]; Staphylococcus aureus, ATCC33591, 24 h, read-out: MIC, Visual)?
Its MIC is 0.391 µg/mL (≈ 0.27 µM).
